Assay results: PubChem BioAssay AID1745844 (Carcinogenic Potency Database (CPDB), 2022)
Active and inactive are the calls of the source. The rule behind the calls is not given here.

System: rodent lifetime carcinogenesis bioassay, tumor incidence TD50
Assay: chronic cancer bioassays in animals – CPDB, compiled studies (AID 1745844)

CC1=C(C(=O)OC(C)C)C(c2cccc([N+](=O)[O-])c2)C(C(=O)OC2CN(C(c3ccccc3)c3ccccc3)C2)=C(N)N1 (stereo not drawn)
carcinogen call (mouse, strain B6C3F1, females, by gavage, site: any site (literature study), lesion: several types, types named in the paper, dosed 78 weeks, study length 78 weeks): negative (inactive)
carcinogen call (mouse, strain B6C3F1, females, by gavage, site: liver, lesion: hepatocellular adenoma, dosed 78 weeks, study length 78 weeks): negative (inactive)
carcinogen call (mouse, strain B6C3F1, females, by gavage, site: liver, lesion: hepatocellular carcinoma, dosed 78 weeks, study length 78 weeks): negative (inactive)
TD50 (mouse, strain B6C3F1, females, by gavage, site: lung, lesion: alveolar/bronchiolar adenoma, dosed 78 weeks, study length 78 weeks): 217 mg/kg/day (inactive)
carcinogen call (mouse, strain B6C3F1, females, by gavage, site: lung, lesion: alveolar/bronchiolar carcinoma, dosed 78 weeks, study length 78 weeks): negative (inactive)
TD50 (mouse, strain B6C3F1, males, by gavage, site: any site (literature study), lesion: several types, types named in the paper, dosed 78 weeks, study length 78 weeks): 83.5 mg/kg/day (inactive)
carcinogen call (mouse, strain B6C3F1, males, by gavage, site: liver, lesion: hepatocellular adenoma, dosed 78 weeks, study length 78 weeks): negative (inactive)
carcinogen call (mouse, strain B6C3F1, males, by gavage, site: liver, lesion: hepatocellular carcinoma, dosed 78 weeks, study length 78 weeks): negative (inactive)
TD50 (mouse, strain B6C3F1, males, by gavage, site: lung, lesion: alveolar/bronchiolar adenoma, dosed 78 weeks, study length 78 weeks): 65 mg/kg/day (inactive)
TD50 (mouse, strain B6C3F1, males, by gavage, site: lung, lesion: alveolar/bronchiolar carcinoma, dosed 78 weeks, study length 78 weeks): 227 mg/kg/day (inactive)
carcinogen call (rat, strain F344/DuCrj, females, by gavage, site: any site (literature study), lesion: several types, types named in the paper, dosed 104 weeks, study length 104 weeks): negative (inactive)
carcinogen call (rat, strain F344/DuCrj, females, by gavage, site: liver, lesion: hepatocellular adenoma, dosed 104 weeks, study length 104 weeks): negative (inactive)
carcinogen call (rat, strain F344/DuCrj, females, by gavage, site: liver, lesion: hepatocellular carcinoma, dosed 104 weeks, study length 104 weeks): negative (inactive)
carcinogen call (rat, strain F344/DuCrj, males, by gavage, site: any site (literature study), lesion: several types, types named in the paper, dosed 104 weeks, study length 104 weeks): negative (inactive)
TD50 (rat, strain F344/DuCrj, males, by gavage, site: liver, lesion: hepatocellular adenoma, dosed 104 weeks, study length 104 weeks): 117 mg/kg/day (inactive)
TD50 (rat, strain F344/DuCrj, males, by gavage, site: liver, lesion: hepatocellular carcinoma, dosed 104 weeks, study length 104 weeks): 237 mg/kg/day (inactive)

CCN(CC)C(=S)S
TD50 (mouse, strain B6AKF1, females, oral dosing, site: lung, lesion: adenoma, dosed 76 weeks, study length 76 weeks): 607 mg/kg/day
TD50 (mouse, strain B6AKF1, males, oral dosing, site: any site (literature study), lesion: several types, types named in the paper, dosed 76 weeks, study length 76 weeks): 403 mg/kg/day
TD50 (mouse, strain B6AKF1, males, oral dosing, site: lung, lesion: adenoma, dosed 76 weeks, study length 76 weeks): 155 mg/kg/day
carcinogen call (mouse, strain B6C3F1, females, in feed, site: any site (literature study), lesion: several types, types named in the paper, dosed 108 weeks, study length 108 weeks): negative (inactive)
TD50 (mouse, strain B6C3F1, females, in feed, site: liver, lesion: hepatocellular adenoma + hepatocellular carcinoma + neoplastic nodule, dosed 108 weeks, study length 108 weeks): 27000 mg/kg/day
TD50 (mouse, strain B6C3F1, females, in feed, site: lung, lesion: alveolar/bronchiolar adenoma + alveolar/bronchiolar carcinoma, dosed 108 weeks, study length 108 weeks): 4760 mg/kg/day
carcinogen call (mouse, strain B6C3F1, males, in feed, site: any site (literature study), lesion: several types, types named in the paper, dosed 108 weeks, study length 108 weeks): negative (inactive)
TD50 (mouse, strain B6C3F1, males, in feed, site: lung, lesion: alveolar/bronchiolar adenoma + alveolar/bronchiolar carcinoma, dosed 108 weeks, study length 108 weeks): 10300 mg/kg/day
TD50 (mouse, strain B6C3F1, males, oral dosing, site: any site (literature study), lesion: several types, types named in the paper, dosed 76 weeks, study length 76 weeks): 71.4 mg/kg/day
TD50 (mouse, strain B6C3F1, males, oral dosing, site: liver, lesion: hepatoma, dosed 76 weeks, study length 76 weeks): 68.7 mg/kg/day
TD50 (mouse, strain B6C3F1, males, oral dosing, site: lung, lesion: adenoma, dosed 76 weeks, study length 76 weeks): 468 mg/kg/day
carcinogen call (rat, strain Fischer 344, females, in feed, site: any site (literature study), lesion: several types, types named in the paper, dosed 104 weeks, study length 104 weeks): negative (inactive)
carcinogen call (rat, strain Fischer 344, males, in feed, site: any site (literature study), lesion: several types, types named in the paper, dosed 104 weeks, study length 104 weeks): negative (inactive)

Cc1cccc2cccnc12
carcinogen call (rat, strain Fischer 344, females, in feed, site: liver, lesion: hyperplastic nodule, dosed 104 weeks, study length 104 weeks): negative (inactive)
carcinogen call (rat, strain Fischer 344, males, in feed, site: liver, lesion: hyperplastic nodule, dosed 104 weeks, study length 104 weeks): negative (inactive)

CCCN(CCC)N=O
TD50 (monkey, strain Rhesus [Macaca mulatta], both sexes, i.p., site: any site (literature study), lesion: malignant tumor, dosed 133 weeks, study length 133 weeks): 0.0121 mg/kg/day
TD50 (monkey, strain Rhesus [Macaca mulatta], both sexes, i.p., site: liver, lesion: hepatocellular carcinoma, dosed 133 weeks, study length 133 weeks): 0.0121 mg/kg/day
TD50 (rat, strain Fischer 344, females, by gavage, site: esophagus, lesion: several types, types named in the paper, dosed 30 weeks, study length 60 weeks): 0.505 mg/kg/day
TD50 (rat, strain Fischer 344, females, by gavage, site: liver, lesion: hepatocellular carcinoma, dosed 30 weeks, study length 60 weeks): 0.186 mg/kg/day
TD50 (rat, strain Fischer 344, females, by gavage, site: nasal cavity, lesion: carcinoma, dosed 30 weeks, study length 60 weeks): 0.186 mg/kg/day

COc1cc(-c2ccc(N=C=O)c(OC)c2)ccc1N=C=O
TD50 (mouse, strain B6C3F1, females, in feed, site: any site (literature study), lesion: several types, types named in the paper, dosed 78 weeks, study length 103 weeks): 32800 mg/kg/day (inactive)
TD50 (mouse, strain B6C3F1, males, in feed, site: any site (literature study), lesion: several types, types named in the paper, dosed 78 weeks, study length 103 weeks): 24000 mg/kg/day (inactive)
TD50 (mouse, strain B6C3F1, males, in feed, site: liver, lesion: hepatocellular adenoma + hepatocellular carcinoma + neoplastic nodule, dosed 78 weeks, study length 103 weeks): 12100 mg/kg/day
TD50 (mouse, strain B6C3F1, males, in feed, site: lung, lesion: alveolar/bronchiolar adenoma + alveolar/bronchiolar carcinoma, dosed 78 weeks, study length 103 weeks): 87900 mg/kg/day
TD50 (rat, strain Fischer 344, females, oral dosing, site: all sites + uterus, lesion: leukemia + lymphoma + endometrial stromal polyp, dosed 78 weeks, study length 104 weeks): 1450 mg/kg/day
TD50 (rat, strain Fischer 344, females, oral dosing, site: all sites, lesion: leukemia + lymphoma, dosed 78 weeks, study length 104 weeks): 2280 mg/kg/day
TD50 (rat, strain Fischer 344, females, oral dosing, site: any site (literature study), lesion: several types, types named in the paper, dosed 78 weeks, study length 104 weeks): 773 mg/kg/day
TD50 (rat, strain Fischer 344, females, oral dosing, site: ear + Zymbal's gland, lesion: sebaceous adenocarcinoma + squamous-cell carcinoma + trichoepithelioma, dosed 78 weeks, study length 104 weeks): 2590 mg/kg/day
TD50 (rat, strain Fischer 344, females, oral dosing, site: liver, lesion: hepatocellular adenoma + hepatocellular carcinoma + neoplastic nodule, dosed 78 weeks, study length 104 weeks): 17100 mg/kg/day
TD50 (rat, strain Fischer 344, females, oral dosing, site: uterus, lesion: endometrial stromal polyp, dosed 78 weeks, study length 104 weeks): 2740 mg/kg/day
TD50 (rat, strain Fischer 344, males, oral dosing, site: all sites + skin of foot and toe + skin of back + skin of flank + skin, lesion: leukemia + lymphoma + keratoacanthoma + basal-cell tumor + papilloma, NOS + sebaceous adenoma + sebaceous adenoma and adenocarcinoma, dosed 78 weeks, study length 104 weeks): 742 mg/kg/day
TD50 (rat, strain Fischer 344, males, oral dosing, site: all sites, lesion: leukemia + lymphoma, dosed 78 weeks, study length 104 weeks): 1270 mg/kg/day
TD50 (rat, strain Fischer 344, males, oral dosing, site: any site (literature study), lesion: several types, types named in the paper, dosed 78 weeks, study length 104 weeks): 809 mg/kg/day
TD50 (rat, strain Fischer 344, males, oral dosing, site: ear + Zymbal's gland, lesion: squamous-cell carcinoma, dosed 78 weeks, study length 104 weeks): 7010 mg/kg/day
TD50 (rat, strain Fischer 344, males, oral dosing, site: liver, lesion: hepatocellular adenoma + hepatocellular carcinoma + neoplastic nodule, dosed 78 weeks, study length 104 weeks): 6600 mg/kg/day
TD50 (rat, strain Fischer 344, males, oral dosing, site: skin of foot and toe + skin of back + skin of flank + skin, lesion: keratoacanthoma + basal-cell tumor + papilloma, NOS + sebaceous adenoma + trichoepithelioma, dosed 78 weeks, study length 104 weeks): 1770 mg/kg/day
TD50 (rat, strain Fischer 344, males, oral dosing, site: skin of foot and toe + skin of back + skin of flank + skin, lesion: keratoacanthoma + basal-cell tumor + papilloma, NOS + sebaceous adenoma and adenocarcinoma + squamous-cell carcinoma + trichoepith, dosed 78 weeks, study length 104 weeks): 1330 mg/kg/day
